Patent publication US9758480B2, “1-(cycloalkyl-carbonyl)proline derivative” (SUMITOMO DAINIPPON PHARMA CO., LTD., priority 2012, dated 2017)
Where a name gives a salt, the structure may show the parent alone.

How the values were obtained:
human FXIa = human FXIa (Homo sapiens (Human), UniProt P03951); assay: In vitro activated factor XI (FXIa) inhibition test; type: biochemical; conditions: 0.35 μg/mL human FXIa, substrate S-2366 300 μmol/L, 37° C., 10 minutes, OD 405 nm; read-out: FXIa inhibitory activity IC50
Sequence of human FXIa (P03951 388-625): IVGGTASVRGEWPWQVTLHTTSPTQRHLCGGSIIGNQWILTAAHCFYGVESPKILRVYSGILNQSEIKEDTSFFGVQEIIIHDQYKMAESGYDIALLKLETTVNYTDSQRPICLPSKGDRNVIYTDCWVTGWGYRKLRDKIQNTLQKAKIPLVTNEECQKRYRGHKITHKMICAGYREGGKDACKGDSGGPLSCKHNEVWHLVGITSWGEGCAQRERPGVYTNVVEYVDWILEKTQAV
Sequence of human FXIa (P03951 19-387 partner): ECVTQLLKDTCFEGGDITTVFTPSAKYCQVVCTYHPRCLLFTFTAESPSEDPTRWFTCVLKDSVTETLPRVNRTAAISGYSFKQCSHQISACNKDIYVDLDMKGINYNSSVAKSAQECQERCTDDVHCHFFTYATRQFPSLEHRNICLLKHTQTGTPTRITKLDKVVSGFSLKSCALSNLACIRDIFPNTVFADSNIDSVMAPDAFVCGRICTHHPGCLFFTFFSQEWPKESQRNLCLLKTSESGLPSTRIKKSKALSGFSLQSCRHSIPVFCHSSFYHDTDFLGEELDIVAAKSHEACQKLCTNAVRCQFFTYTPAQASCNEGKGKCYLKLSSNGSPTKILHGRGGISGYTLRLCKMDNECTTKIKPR
Procedure: To the substrate, S-2366 (pyroGlu-Pro-Arg-pNA.HCl) was added to a final concentration of 300 μmol/L. After the reaction had progressed, the absorbance at OD 405 nm was measured.

[1] = Ester metabolism stabilization test: human liver stabilization test; type: in vitro ADME; conditions: human liver S9, NADPH, 37° C., 30 minutes
Procedure: A reaction solution prepared by mixing 5 μL of human liver S9 (manufactured by Xenotech, 20 mg/mL), 20 μL of 500 mmol/L Kpi (pH7.4), 40 μL of 5 mmol/L NADPH (manufactured by Oriental Yeast Co., Ltd.) aqueous solution, and 133 μL of ion exchange water was added to 2 μL of a DMSO solution containing 100 μmol/L test substance, and the thus obtained mixture was then incubated at 37° C. for 30 minutes. After completion of the incubation, 600 μL of acetonitrile was added to the reaction solution, so that the metabolic reaction was terminated. The residual percentage of the test substance was measured using LC (LC-20A manufactured by Shimadzu Corporation) and -MS (API4000 manufactured by AB Sciex). • (2) Stabilization in Human Plasma Test

[2] = system: rabbit model with venous thrombus; assay: Rabbit in vivo antithrombotic action evaluation test (venous thrombus model), thrombus weight; conditions: i.v.
Text: A rabbit model with venous thrombus was produced by modifying the report of Wienen et al. (Wienen W. et al., J. Thromb. Haemost. 5:1237-1242 (2007)). A male rabbit (JW, 2-4 kg) was narcotized by inhalation of isoflurane (ISOFLU®, manufactured by DS Pharma Animal Health) (inductive anesthesia: 4%, continuous anesthesia: 1.5% to 2.5%). For intravenous administration of a test agent and blood collection, catheters were inserted into the left femoral vein and the left femoral artery. The left external jugular vein was exposed (2 cm) from a branch of the facial vein, the microvascular branch was then ligated, and a catheter was then inserted into the posterior facial vein. The external jugular vein (2 cm) exposed from each of an anterior facial vein branch and a facial vein branch was ligated with an artery clamp, and blood was then removed from a catheter left in the posterior facial vein. Blood in the blood vessel was washed with a normal saline, and 0.5% polidocanol (manufactured by Sigma) was injected into the blood vessel. It was then left for 5 minutes, so that the occurrence of a disorder in vascular endothelium was provoked. Thereafter, 0.5% polidocanol was removed, the inside of the blood vessel was then washed with a normal saline, and the artery clamp was then removed. The external jugular vein (2 cm) exposed from the facial vein branch, together with an injection needle 21G (manufactured by Terumo), was ligated with a silk thread, so that the inner diameter of the blood vessel was reduced to 0.8 mm. Twenty-five minutes after recirculation of the blood flow, the external jugular vein (2 cm) exposed from the facial vein branch was excised, and the wet weight and dry weight of a thrombus formed in the blood vessel were measured. A test agent or a vehicle was administered to the rabbit 2 minutes before recirculation of the blood flow.

[3] = system: endogenous coagulation pathway; assay: Activated partial thromboplastin time (aPTT) of blood sample in rabbit antithrombotic test; type: in vivo; conditions: i.v.
Procedure: In order to measure the activated partial thromboplastin time (aPTT) of the blood sample, which was to be used as an indicator of an endogenous coagulation pathway, 2 minutes after the administration of the test agent or the vehicle, blood was collected, and plasma was then prepared using 3.2% sodium citrate. The prepared plasma was incubated at 37° C. for 7 minutes, and an STA reagent Cephascreen (used for aPTT measurement; manufactured by Roche Diagnostics) was added in an equal amount to the resulting plasma, and the obtained mixture was further incubated for 3 minutes. Thereafter, STA calcium chloride (manufactured by Roche Diagnostics) was added in an equal amount to the resultant, and the time required until coagulation was then measured.

[4] = Ester metabolism stabilization test: stabilization in human plasma test; type: in vitro ADME; conditions: 37° C., 30 minutes
Procedure: 198 μL of human plasma (manufactured by Cosmo Bio) was added to 2 μL of a DMSO solution containing 100 μmol/L test substance, and the obtained mixture was then incubated at 37° C. for 30 minutes. After completion of the incubation, 600 μL of acetonitrile was added to the reaction solution, so that the metabolic reaction was terminated. The residual percentage of the test substance was measured using LC (LC-20A manufactured by Shimadzu Corporation) and -MS (API4000 manufactured by AB Sciex).

SMILES | IC50 (human FXIa) | Residual percentage (%) Human liver S9 [1] | other results
NC(CF)[C@H]1CC[C@H](C(=O)N2CC[C@@H](c3ccc(F)cc3)[C@H]2C(=O)Nc2ccc3[nH]c(C(=O)O)cc3c2)CC1 (stereo partly shown) [Example 38] | 30 nM |  | 
Cc1oc(=O)oc1COC(=O)c1cc2cc(NC(=O)[C@@H]3[C@@H](c4ccccc4)CCN3C(=O)[C@H]3CC[C@H]([C@H](N)CF)CC3)ccc2[nH]1 [Example 171] |  | 18% | 
N[C@H](CF)[C@H]1CC[C@H](C(=O)N2CCC(C3CCCCC3)[C@H]2C(=O)Nc2ccc3oc(C(=O)O)cc3c2)CC1 (single isomer, unassigned) [Example 53] |  |  | Thrombus (% inhibition) ([2]; dose 0.1 mg/kg): 25 % inhibition; Thrombus (% inhibition) ([2]; dose 0.3 mg/kg): 56 % inhibition; Thrombus (% inhibition) ([2]; dose 1.0 mg/kg): 79 % inhibition; Thrombus (% inhibition) ([2]; dose 3.0 mg/kg): 80 % inhibition; aPTT (% vehicle) ([3]; dose 0.1 mg/kg): 103 % vehicle; aPTT (% vehicle) ([3]; dose 0.3 mg/kg): 117 % vehicle; aPTT (% vehicle) ([3]; dose 1.0 mg/kg): 140 % vehicle; aPTT (% vehicle) ([3]; dose 3.0 mg/kg): 166 % vehicle
COc1ccc([C@H]2CCN(C(=O)[C@H]3CC[C@H]([C@H](N)CF)CC3)[C@@H]2C(=O)Nc2ccc3[nH]c(C(=O)O)cc3c2)cc1 [Example 170] | 76 nM |  | 
CC(C)C(=O)O[C@@H](C)OC(=O)N[C@H](CF)[C@H]1CC[C@H](C(=O)N2CC[C@@H](C3CCCCC3)[C@H]2C(=O)Nc2ccc(-c3nnn[nH]3)cc2)CC1 [Example 205, (1R)-1-({[(1S)-1-(trans-4-{[(2S,3S)-3-Cyclohexyl-2-{[4-(1H-tetrazol-5-yl)phenyl]carbamoyl}pyrrolidin-1-yl]carbonyl}cyclohexyl)-2-fluoroethyl]carbamoyl}oxy)ethyl 2-methylpropanoate] |  | 3.5% | Residual percentage (%) Human plasma [4]: 60%
Cc1c(C(=O)O)[nH]c2ccc(NC(=O)[C@@H]3[C@H](C4CCCCC4)CCN3C(=O)[C@H]3CC[C@H]([C@H](N)CF)CC3)cc12 [Example 113] | 145 nM |  | 
COC1CCC([C@@H]2CCN(C(=O)[C@H]3CC[C@H]([C@H](N)CF)CC3)[C@@H]2C(=O)Nc2ccc3oc(C(=O)OCC(C)C)cc3c2)CC1 (stereo partly shown) [Example 201] |  | 45% | 
CC(OC(=O)OC1CCCCC1)OC(=O)c1cc2cc(NC(=O)[C@@H]3[C@@H](c4ccccc4)CCN3C(=O)[C@H]3CC[C@H]([C@H](N)CF)CC3)ccc2[nH]1 (stereo partly shown) [Example 120] |  | 4.9% | 
N[C@H](CF)[C@H]1CC[C@H](C(=O)N2CC[C@H](c3ccc(F)cc3)[C@H]2C(=O)Nc2ccc3[nH]c(C(=O)O)cc3c2)CC1 [Example 178] | 33 nM |  | 
N[C@H](CF)[C@H]1CC[C@H](C(=O)N2CC[C@@H](c3ccccc3)[C@H]2C(=O)Nc2ccc3[nH]c(C(=O)O)c(Cl)c3c2)CC1 [Example 186] | 60 nM |  | 
CN(C(=O)C1C(c2ccccc2)CCN1C(=O)[C@H]1CC[C@H](CN)CC1)c1ccc2[nH]c(C(=O)O)cc2c1 (stereo partly drawn) [Example 5, 5-{cis-1-[trans-4-(Aminomethyl)cyclohexanecarbonyl]-N-methyl-3-phenylpyrrolidine-2-carboxamide}-1H-indole-2-carboxylic acid trifluoroacetate] | 125 nM |  | 
N[C@H](CF)[C@H]1CC[C@H](C(=O)N2CC[C@@H](C3CCCCC3)[C@H]2C(=O)Nc2ccc3[nH]c(C(=O)O)cc3c2)CC1 [Example 99] | 6 nM |  | 
N[C@H](CF)[C@H]1CC[C@H](C(=O)N2CC[C@@H](C3CCCCC3)[C@H]2C(=O)Nc2ccc3oc(C(=O)OCC4CCOCC4)cc3c2)CC1 [Example 141] |  | 17% | 
COCCCOC(=O)c1cc2cc(NC(=O)[C@@H]3[C@H](C4CCCCC4)CCN3C(=O)[C@H]3CC[C@H]([C@H](N)CF)CC3)ccc2o1 [Example 82] |  | 5.8% | 
CC(C)OC(=O)OC(C)OC(=O)c1cc2cc(NC(=O)[C@@H]3[C@H](C4CCCCC4)CCN3C(=O)[C@H]3CC[C@H]([C@H](N)CF)CC3)ccc2[nH]1 (stereo partly shown) [Example 128] |  | 47% | 
CCC(=O)OC(OC(=O)c1cc2cc(NC(=O)[C@@H]3[C@@H](c4ccccc4)CCN3C(=O)[C@H]3CC[C@H]([C@H](N)CF)CC3)ccc2[nH]1)C(C)C (stereo partly shown) [Example 125] |  | 5.6% | 
NC[C@H]1CC[C@H](C(=O)N2CCC(c3ccccc3)[C@H]2C(=O)Nc2ccc3[nH]c(C(=O)O)cc3c2)CC1 (stereo partly shown) [Example 23] | 9 nM |  | 
